These results are taken from patent US20020045664A1, “Estrogen mimetics lacking reproductive tract effects” (The University of Georgia Research Foundation, Inc, priority 1999, published 2002).

Entries after “also recorded” stand apart in the source; their conditions may differ. Marks after values point to notes of the source that are not given here.

Test [1] has as its system rat uterus (uterine weight gain). On the set-up: Rat Uterotrophic Assay % Efficacy: concentration or dose not given beside the values. Particulars: cited from earlier work; for Rat Uterotrophic Assay % Efficacy: in vivo.
Test [2] concerns OVX rat. The test can be described thus: OVX rat: cortical bone histomorphometry, tibial diaphysis. The settings on record: OVX rats. The class given is in vivo. The protocol:
In the first experiment 50 female Sprague-Dawley rats that were approximately 90 days of age and weighed an average of 240 g at the beginning of the study were used. Animal care and handling was carried out solely at the AAALAC accredited animal facility at the University of Georgia College of Pharmacy, in accordance with a protocol approved by the University of Georgia Institutional Animal Care and Use Committee. On the day of surgery (day 0), all rats were anesthetized with an intraperitoneal (i.p.) injection of ketamine hydrochloride and xylazine at doses of 50 mg/kg body weight and 10 mg/kg body weight, respectively. […]
Bone measurements were performed with the Bioquant Bone Morphometry System (R&M Biometrics Corp., Nashville, Tenn.). Cortical bone tissue area and bone marrow area were measured in one section per animal at a magnification of 20×. Cortical bone area was calculated by subtracting marrow area from cortical bone tissue area. Cortical width was measured from the periosteal to the endocortical surfaces at four equally spaced sites at the anterior (cranial), posterior (caudal), medial, and lateral aspects of each cross-section. […]
Fluorochrome-based indices of bone formation were measured under UV illumination at magnifications of 100× and 200× for mineralizing surface and mineral apposition rate, respectively. […]

Another test concerns MCF-7 cells. Particulars: cited from earlier work; for EC50: concentration at which growth stimulation was 50% maximal, read-out: MCF-7 Cell Growth EC50; for maximal growth-stimulatory effect, as a percent of that of estradiol: MCF-7 cell proliferation assay.
In test [3] the test system is OVX rat. Description: OVX rat: cancellous bone histomorphometry, proximal tibial metaphysis. The class given is in vivo. Particulars: OVX rats; for osteoblast surface: 35 days after surgery; for Mineral apposition rate (MAR): 35 days postsurgery. Here is the method:
(§1) In the first experiment 50 female Sprague-Dawley rats that were approximately 90 days of age and weighed an average of 240 g at the beginning of the study were used. Animal care and handling was carried out solely at the AAALAC accredited animal facility at the University of Georgia College of Pharmacy, in accordance with a protocol approved by the University of Georgia Institutional Animal Care and Use Committee. On the day of surgery (day 0), all rats were anesthetized with an intraperitoneal (i.p.) injection of ketamine hydrochloride and xylazine at doses of 50 mg/kg body weight and 10 mg/kg body weight, respectively. Ten rats were sham-operated during which the ovaries were exteriorized but replaced intact. Bilateral ovariectomies were performed in the remaining 40 rats from a dorsal approach. Each rat was housed individually at 25° C. with a light/dark cycle of 13 hours/11 hours. Food (Teklad 22/5 Rodent Diet, Madison, Wis.), with calcium and phosphate contents of 0.95% and 0.67%, respectively, was available ad libitum to all animals.
(§2) Sham-operated rats (N=10) and one of the four groups of OVX rats (N=10) were injected subcutaneously (s.c.) with vehicle (5% benzyl alcohol in corn oil) 5 days per week for 5 weeks. […] The above treatments were initiated on the first day after surgery. The dose level of 17β-estradiol was believed to be optimal based on earlier studies (T. Wronski et al., Endocrinology 123:681-686 (1988)). […] Each rat was injected s.c. with demeclocycline and calcein (Sigma Chemical Co., St. Louis, Mo.) at a dose of 15 mg/kg body weight on the 10th and 3rd days before sacrifice, respectively, to label sites of bone formation.
(§3) A second experiment, using 40 animals, was performed in exactly the same manner described above, in which effects of the s.c. administration of 3.7 mg/kg/day of 4HTA to one group of OVX animals was compared to the effects of vehicle or 17β-estradiol in three other groups (vehicle treated sham OVX, vehicle treated OVX, and 17β-estradiol-treated OVX rats).
The proximal halves of the tibiae were dehydrated by immersion in ethanol, and embedded undecalcified in methyl methacrylate. Longitudinal sections (4- and 8-μm thick) were cut with AO Autocut/Jung 1150 or 2050 microtomes. The 4-μm thick sections were stained according to the Von Kossa method with a tetrachrome counterstain (Polysciences Inc., Warrington, Pa.). Bone measurements were performed in cancellous bone tissue of the proximal tibial metaphysis beginning at distances 1 mm distal to the growth plate-metaphyseal junction to exclude the primary spongiosa. In general, two sections of the proximal tibia, with a total of 40-50 mm of cancellous bone perimeter, were sampled in each animal with an appreciable amount of cancellous bone. Additional sections were sampled in osteopenic animals to approximate the cancellous bone perimeter sampled in animals with greater cancellous bone mass.
Bone measurements were performed with the Bioquant Bone Morphometry System (R&M Biometrics Corp., Nashville, Tenn.) as described in T. Wronski et al. (Calcif. Tissue Int. 53:210-216 (1993)). Cancellous bone volume as a percentage of bone tissue area and osteoblast and osteoclast surfaces as percentages of total cancellous perimeter were measured in 4-μm thick, stained sections.
Fluorochrome-based indices of bone formation were measured in unstained, 8-μm-thick sections of the proximal tibial metaphysis. The percentage of cancellous bone surface with a double fluorochrome label (mineralizing surface) and mineral apposition rate were measured with the Bioquant system. In addition, bone formation rate (tissue level, total surface referent) was calculated by multiplying mineralizing surface by mineral apposition rate (H. Frost, Bone histomorphometry: analysis of trabecular bone dynamics. In: Recker R. R., Ed. Bone Histomorphometry: Techniques and Interpretation. Boca Raton, Fla.: CRC Press; 1983; 109-132).

Test [4] deals with OVX rat. Description: Serum rat osteocalcin radioimmunoassay in OVX rats. The test is classed as in vivo. The settings on record: for increase in serum OC: OVX animals, with respect to OVX vehicle controls; for Relative Serum OC Level, mean (SD): relative to OVX-17β-estradiol treated group (=100). The protocol:
as §1, §2, §3
(§4) All rats were sacrificed by exsanguination from the abdominal aorta under ketamine/xylazine anesthesia. Failure to detect ovarian tissue and observation of marked atrophy of the uterine horns confirmed the success of ovariectomy. The body weight of each animal was recorded, as was uterine wet weight. Blood samples were allowed to coagulate at room temperature (2 hours) in a Vacutainer tube. Serum was obtained by centrifugation for 10 minutes at 3000 rpm, and samples were stored at −80° C. until analyzed. The right tibia was removed at necropsy, dissected free of muscle, and cut in half cross-sectionally with a hand-held saw (Dremel Moto Tool, Racine, Wis.). The bone samples were then placed in 10% phosphate-buffered formalin for 24 hours for tissue fixation.
Materials, as well as standard protocols for their use, were obtained from Biomedical Technologies, Inc., Stoughton Mass. Serum samples from each member of the different treatment groups were diluted 1:20. Duplicate aliquots (100 μL) of each diluted sample were incubated in an orbital shaker at 80 rpm ([…]) for 16 hours with the first antibody and nonimmune serum in RIA buffer (final volume 0.5 mL). An aliquot of [^125I]-osteocalcin (10 nCi, 0.034 ng) in 100 μL of RIA buffer was then added to each tube and incubation was continued for 24 hours. Then the second (precipitating) antibody was added in 1 mL of modified buffer, and incubation was continued for 4 hours. Tubes were then centrifuged at 1500×g for 15 minutes. Pellets were washed with cold distilled water and recentrifuged as before. Supernatant was decanted and radioactivity in pellets was determined using a gamma counter. Serum osteocalcin levels were determined by comparing the sample values (cpm) to the linear region of a standard curve of cpm/pellet vs. the amount of osteocalcin present, obtained from incubations to which known amounts (0-0.35 ng) of osteocalcin had been added. […]

Test [5] relates to OVX rat. Description: Serum cholesterol in OVX rats. The class given is in vivo. Particulars: for Serum Cholesterol, mean (SD): experiment 1. The protocol:
as §1, §2
All rats were sacrificed by exsanguination from the abdominal aorta under ketamine/xylazine anesthesia. Failure to detect ovarian tissue and observation of marked atrophy of the uterine horns confirmed the success of ovariectomy. The body weight of each animal was recorded, as was uterine wet weight. […] Serum was obtained by centrifugation for 10 minutes at 3000 rpm, and samples were stored at −80° C. until analyzed. […]

Test [6] relates to OVX rat. Description: OVX rat: body weight and uterine wet weight. The class given is in vivo. Particulars: for greater uterine weight compared to vehicle-treated OVX animals: 17β-estradiol: average of both experiments, 4HTA: vs respective OVX vehicle controls; for Uterine Weight, mean (SD) / Body Weight, mean (SD): OVX rats, 17β-estradiol 10 μg/kg/day; for Uterine Weight, mean (SD): s.c. 5 weeks; for Body Weight, mean (SD): s.c. 5 days/week for 5 weeks; for increase in overall body weight after ovariectomy: five-week course of the two studies, subcutaneous five days per week. Here is the method:
as §1, §2, §3, §4

The subject of test [7] is MCF 7 human breast cancer cells. The settings on record: estradiol-stimulated MCF-7 proliferation; cited from earlier work.
In another test the target is estrogen receptor (Homo sapiens, UniProt P03372). Particulars: cited from earlier work.
Sequence of estrogen receptor (P03372 whole entry): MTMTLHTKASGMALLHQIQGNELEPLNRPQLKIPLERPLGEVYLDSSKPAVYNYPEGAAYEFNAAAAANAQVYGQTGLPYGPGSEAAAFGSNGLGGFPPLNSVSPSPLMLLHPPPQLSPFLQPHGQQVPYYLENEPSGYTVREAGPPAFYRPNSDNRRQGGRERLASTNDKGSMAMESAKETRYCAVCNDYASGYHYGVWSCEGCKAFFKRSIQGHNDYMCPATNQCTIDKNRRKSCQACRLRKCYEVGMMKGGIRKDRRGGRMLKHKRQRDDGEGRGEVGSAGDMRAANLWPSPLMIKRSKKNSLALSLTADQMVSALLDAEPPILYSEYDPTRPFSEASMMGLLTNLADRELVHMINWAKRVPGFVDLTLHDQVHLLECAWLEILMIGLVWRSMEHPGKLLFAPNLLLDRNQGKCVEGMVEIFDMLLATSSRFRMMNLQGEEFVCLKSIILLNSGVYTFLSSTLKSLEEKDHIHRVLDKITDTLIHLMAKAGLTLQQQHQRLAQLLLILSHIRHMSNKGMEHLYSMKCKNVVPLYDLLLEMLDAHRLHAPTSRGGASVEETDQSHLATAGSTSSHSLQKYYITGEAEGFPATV
Test [8] relates to OVX rat. Description: OVX rat: body weight and uterine wet weight. The test is classed as in vivo.
Test [9] relates to mouse uterus (uterine weight gain). Particulars: dose at which uterine weight gain was 50% maximal; cited from earlier work.
Where [10] appears, read: experiment 1, HPPA 3.6 mg/kg/day.
Where [11] appears, read: experiment 2, 4HTA 3.7 mg/kg/day.

In the case of `C[C@]12CC[C@@H]3c4ccc(O)cc4CC[C@H]3[C@@H]1CC[C@@H]2O` [17β-estradiol], the “Rat Uterotrophic Assay ED50” value in test [1] (dose at which uterine weight gain was 50% maximal) is 0.16 µg/day. Moreover, the “Rat Uterotrophic Assay % Efficacy” value in test [1] is on record as 100%. For the same molecule, in the test on OVX rat [2], the “periosteal bone formation rate” value is on record as “inhibited periosteal bone formation rate to a level below that of vehicle-treated control rats”. In addition, in the test on MCF-7 cells, the “MCF-7 Cell Growth % Efficacy” value was 100% and the EC50 (commonly the concentration that produces a half-maximal response) was 0.02 nM. Also, in the test on OVX rat [3] (experiment 1), the osteoblast surface entry is “suppressed at the control level” and the “Mineral apposition rate (MAR)” value is “maintained at the control level”. In addition, the “mineralizing surface (cancellous)” value in the test with OVX rat [3] (experiment 1, vs vehicle-treated control rats) was “significantly lower”. The molecule further came in with a cancellous bone volume in the test on OVX rat [3] (second experiment, mean ±SD) of 24.0±5.5%. Further, the “increase in serum OC” value in the test with OVX rat [4] is listed as “prevented this increase”. In addition, the “Relative Serum OC Level, mean (SD)” value in the test on OVX rat [4] (experiment 1) is reported as 100 (33)^b. Moreover, in the test with OVX rat [4] (experiment 2), the “Relative Serum OC Level, mean (SD)” value was 100 (16)^b. Moreover, in the test with OVX rat [5], the “Serum Cholesterol, mean (SD)” value is 80 (3.5)^c mg/dL. In addition, in the test with OVX rat [6], the “greater uterine weight compared to vehicle-treated OVX animals” value came to 167% and the “increase in overall body weight after ovariectomy” value (shortened to “increase in overall body weight”) is on record as “not observed”. Also, in the test on OVX rat [6] (setting [10]), the “Uterine Weight, mean (SD)” value is reported as 269 (48)^b,c mg and the “Body Weight, mean (SD)” value is given as 310 (24)^b g. Moreover, in the test with OVX rat [6] (setting [11]), the “Uterine Weight, mean (SD)” value was 225 (30)^b,c mg and the “Body Weight, mean (SD)” value is listed as 303 (12)^b g.

As for `CCC(=C(c1ccc(O)cc1)c1ccc(OCC(=O)O)cc1)c1ccccc1` [4HTA, (E,Z)-2-{4-[1-(p-hydroxyphenyl)-2-phenyl]-1-butenyl}phenoxyacetic acid], the “maximal growth-stimulatory effect, as a percent of that of estradiol” value in the test with MCF-7 cells is 79%. Besides, the “increase in serum OC” value in the test with OVX rat [4] is “did not differ”. In the test with OVX rat [4] (experiment 2), the “Relative Serum OC Level, mean (SD)” value is reported as 188 (42)^c. Further, the “estrogen antagonist activity in growth inhibition assay in the presence of estrogen” value in [7] is on record as “weak antagonist potency; also recorded: weakly inhibits”. Besides, on estrogen receptor, the “relative estrogen receptor binding affinity (RBA)” value is 20% of estradiol binding affinity. Besides, in the test on OVX rat [6], the “greater uterine weight compared to vehicle-treated OVX animals” value was found to be 25% and the “increase in overall body weight” value is “not observed”. The “Body Weight, mean (SD)” value with OVX rat [6] (setting [11]) is recorded as 305 (12)^b,c g.

Regarding `O=C(O)COc1ccc(C(Cc2ccccc2)c2ccc(O)cc2)cc1` (stereo not shown) [HPPA, 4-[1-(4-hydroxyphenyl)-2-phenylethyl]phenoxyacetic acid], in the test on OVX rat [2], the “periosteal bone formation rate” value was “did not inhibit”. Also, in the test with MCF-7 cells, the “maximal growth-stimulatory effect, as a percent of that of estradiol” value was 102%; the “MCF-7 Cell Growth % Efficacy” value is recorded as 100%; the EC50 was 16 nM. Also, in the test on OVX rat [3] (experiment 1), the osteoblast surface result is “partially suppressed” and the “Mineral apposition rate (MAR)” value is listed as “no effect”. For the same molecule, the “increase in serum OC” value in the test with OVX rat [4] is 34%. In addition, the “reduction in serum cholesterol with respect to vehicle-treated OVX animals” value in the test with OVX rat [5] (10 μmol/kg sc) stood at 10%. For the same molecule, the “Serum Cholesterol, mean (SD)” value with OVX rat [5] is recorded as 72 (1.9)^b,c,d mg/dL. The “estrogen antagonist activity in growth inhibition assay in the presence of estrogen” value in [7] was “did not function as an estrogen antagonist; also recorded: no activity as an antiestrogen”. The “Rat Uterotrophic Assay ED50 (HPPA, Ex. III)” value in the test on OVX rat [8] (s.c.) is >3400 µg/day. For the same molecule, the Emax in the test on OVX rat [8] (sc, read-out: Rat Uterotrophic Assay % Efficacy (HPPA), s.c., Ex. III) was 0%. Further, in the test with OVX rat [6], the “greater uterine weight compared to vehicle-treated OVX animals” value is “did not differ appreciably” and the “increase in overall body weight” value is “not observed”. Further, in the test on OVX rat [6] (setting [10]), the “Body Weight, mean (SD)” value is given as 342 (23)^b,c g.

Consider `COc1ccc(C(Cl)=C(c2ccc(OC)cc2)c2ccc(OC)cc2)cc1` [chlorotrianisene], for which the “Rat Uterotrophic Assay % Efficacy” value in [1] is 100%. In the test on MCF-7 cells, the “MCF-7 Cell Growth % Efficacy” value is reported as 89% and the EC50 is 28 nM. Further, the “Uterotrophic Assay ED50, determined in the mouse” value in test [9] is 40^c μg/day.

Take `CC/C(=C(/CC)c1ccc(O)cc1)c1ccc(O)cc1` [diethylstilbestrol]: the “Rat Uterotrophic Assay % Efficacy” value in test [1] is 100%. For the same molecule, in the test with MCF-7 cells, the “MCF-7 Cell Growth % Efficacy” value is 100%. In test [9], the “Uterotrophic Assay ED50, determined in the mouse” value is on record as 3^c μg/day.
